SMILES strings stand for the structures. Activity calls are given as the source filed them. The calls are words filed in the database; no cut-off is given here.

From ChEMBL document CHEMBL3351447, “Design, synthesis and anticancer evaluation of tetrahydro-β-carboline-hydantoin hybrids” (Bioorg Med Chem Lett, 2014) come the findings set out here.

One test has as its system MCF7. The test can be described thus: Cytotoxicity against human MCF7 cells after 72 hrs by MTT assay. As to conditions: MCF7, 72 h. The format is functional, cell-based.
The nature of test [1]: Selectivity index, ratio of IC50 for human RWPE cells to IC50 for human PC3 cells. The format is functional.
The test system of the next test is A549. The test can be described thus: Cytotoxicity against human A549 cells after 72 hrs by MTT assay. The format is functional, cell-based. As to conditions: A549, 72 h.
Test [2] can be described thus: Cytotoxicity against human ME180 cells after 72 hrs by MTT assay. Type of test: functional, cell-based. As to conditions: ME-180, 72 h. On the technique in general: Tetrazolium assays rely on reduction of a dye to a coloured formazan, in cell work by metabolically active cells.
The test system of a further test is HeLa. The test can be described thus: Cytotoxicity against human HeLa cells after 72 hrs by MTT assay. Type of test: functional, cell-based.
A short description of test [3]: Cytotoxicity against human PC3 cells after 72 hrs by MTT assay. The format is functional, cell-based. As to conditions: PC-3, 72 h.
Test [4] has as its system PC-3. The test can be described thus: Induction of cell cycle arrest in human PC3 cells assessed as accumulation at G0/G1 phase at 3 uM after 48 hrs by propidium iodide staining based flow cytometry (reference value: 55%). The format is functional. A general note: A flow cytometer gives signals particle by particle.
For test [5], the system named is PC-3. The test can be described thus: Induction of apoptosis in human PC3 cells assessed as induction of apoptotic body formation at 3 and 6 uM after 48 hrs by orange/ethidium bromide staining based fluorescence microscopy. Type of test: functional, cell-based.
In test [6] the test system is PC-3. The test is described as follows: Induction of apoptosis in human PC3 cells assessed as induction of chromatin condensation with destructive fragmentation of the nucleus at 3 and 6 uM after 48 hrs by orange/ethidium bromide staining based fluorescence microscopy. The format is functional, cell-based.
In test [7] the test system is PC-3. The test can be described thus: Induction of apoptosis in human PC3 cells assessed as early apoptotic cells at 6 uM after 48 hrs by orange/ethidium bromide staining based fluorescence microscopy. Type of test: functional.
Test [8] deals with PC-3. The test is described as follows: Induction of apoptosis in human PC3 cells assessed as induction of membrane blebbing at 3 and 6 uM after 48 hrs by orange/ethidium bromide staining based fluorescence microscopy. The format is functional, cell-based.
The test system of test [9] is PC-3. The test is described as follows: Induction of cell cycle arrest in human PC3 cells assessed as accumulation at G2/M phase at 6 uM after 48 hrs by propidium iodide staining based flow cytometry (reference value: 20.9%). The format is functional.
In test [10] the test system is PC-3. The test can be described thus: Induction of apoptosis in human PC3 cells assessed as early apoptotic cells at 3 uM after 48 hrs by orange/ethidium bromide staining based fluorescence microscopy. The format is functional.
Test [11] relates to PC-3. The test can be described thus: Induction of apoptosis in human PC3 cells assessed as early apoptotic cells at 1 uM after 48 hrs by orange/ethidium bromide staining based fluorescence microscopy. Type of test: functional.
Test [12] relates to PC-3. The test is described as follows: Induction of apoptosis in human PC3 cells assessed as induction of cell shrinkage at 3 and 6 uM after 48 hrs by orange/ethidium bromide staining based fluorescence microscopy. Type of test: functional.
For test [13], the system named is PC-3. The test can be described thus: Induction of cell cycle arrest in human PC3 cells assessed as accumulation at S phase at 3 uM after 48 hrs by propidium iodide staining based flow cytometry (reference value: 15.8%). The format is functional.
For test [14], the system named is PC-3. The test can be described thus: Induction of cell cycle arrest in human PC3 cells assessed as accumulation at S phase at 6 uM after 48 hrs by propidium iodide staining based flow cytometry (reference value: 15.8%). The format is functional.
In test [15] the test system is PC-3. The test is described as follows: Induction of cell cycle arrest in human PC3 cells assessed as accumulation at G2/M phase at 3 and 6 uM after 48 hrs by propidium iodide staining based flow cytometry. Type of test: functional.
The test system of test [16] is PC-3. The test can be described thus: Induction of cell cycle arrest in human PC3 cells assessed as accumulation at G0/G1 phase at 6 uM after 48 hrs by propidium iodide staining based flow cytometry (reference value: 55%). The format is functional.
Test [17] concerns PC-3. The test can be described thus: Induction of cell cycle arrest in human PC3 cells assessed as accumulation at G2/M phase at 3 uM after 48 hrs by propidium iodide staining based flow cytometry (reference value: 20.9%). The format is functional.

By IC50 is commonly meant the point on the concentration scale where inhibition reaches its midpoint. For the compound `COc1cc([C@@H]2c3[nH]c4ccccc4c3C[C@H]3C(=O)N(c4cccc(C(F)(F)F)c4)C(=O)N23)ccc1O`, the half-inhibitory concentration (IC50) in the test with MCF7 was 48 µM; with A549 it was greater than 100 µM; in [2], 27.4 µM; in the test with HeLa it was 11.4 µM; in test [3] it was 9.6 µM. Further, the “Ratio IC50” value in test [1] was determined as 1.6.
`COc1cccc2c1C(=O)c1c(O)c3c(c(O)c1C2=O)C[C@@](O)(C(=O)CO)C[C@@H]3O[C@H]1C[C@H](N)[C@H](O)[C@H](C)O1` [DOXORUBICIN] yielded an IC50 in test [2] of 0.39 µM.
For the compound `COc1cc([C@@H]2c3[nH]c4ccccc4c3C[C@@H]3C(=O)N(c4cccc(C(F)(F)F)c4)C(=O)N23)ccc1O`, the IC50 in the test with MCF7 was 35.9 µM; in the test with A549 it was 43.9 µM; in test [2] it was 30.7 µM; in the test on HeLa, 15.6 µM; in test [3] it was 11.7 µM.
Consider `O=C1[C@@H]2Cc3c([nH]c4ccccc34)[C@@H](c3cccc(O)c3)N2C(=O)N1c1ccc(Cl)cc1`, for which the Activity stood at 43.9% in the test with PC-3 [4]; 42.5% with PC-3 [7]; 34.1% in the test with PC-3 [9]; 25% in the test with PC-3 [10]; 8% in the test with PC-3 [11]; 15.8% with PC-3 [13]. For the same compound, the figures for the Activity with PC-3 [14], in the test with PC-3 [16] and with PC-3 [17] were 11.8%, 45.5% and 31.5%, respectively. The outcome in the test on PC-3 [5], in the test on PC-3 [6], with PC-3 [8] and in the test on PC-3 [12] was Active. Also, the IC50 with MCF7 was found to be 26 µM; with A549, 16 µM; in test [2], 24.6 µM; in the test on HeLa, 6.5 µM; in test [3] it was 6.08 µM. Moreover, in test [1], the “Ratio IC50” value was 5. Moreover, the “fold change (FC)” value with PC-3 [15] stood at 1.63.
`O=C1[C@H]2Cc3c([nH]c4ccccc34)[C@@H](c3cccc(O)c3)N2C(=O)N1c1cccc(C(F)(F)F)c1`: the IC50 with MCF7 turned out to be 42.6 µM; in the test with A549 it was 40 µM; in [2] it was 22.6 µM; in the test on HeLa, 13.6 µM; in [3], 11.2 µM.
The corresponding values for `O=C1[C@@H]2Cc3c([nH]c4ccccc34)[C@@H](c3cccc(O)c3)N2C(=O)N1c1cccc(C(F)(F)F)c1` are 70.9 µM, greater than 100 µM, greater than 100 µM, 31.9 µM and 37.1 µM.
Regarding `O=C1[C@H]2Cc3c([nH]c4ccccc34)[C@@H](c3cccc(O)c3)N2C(=O)N1Cc1ccc(Br)cc1`, the IC50 with MCF7 was found to be 27.9 µM; in the test with A549, 35.4 µM; in test [2], 17.5 µM; in the test with HeLa it was 11.2 µM; in test [3], 9.13 µM. Further, the “Ratio IC50” value in test [1] is on record as 1.7.
On to `O=C1[C@H]2Cc3c([nH]c4ccccc34)[C@@H](c3cccc(O)c3)N2C(=O)N1CCCl`, for which the half-maximal inhibitory concentration (IC50) in the test on MCF7 was greater than 100 µM; in the test with A549, greater than 100 µM; in test [2], 48 µM; in the test on HeLa, 30.3 µM; in [3] it was 22.3 µM.
`O=C1[C@H]2Cc3c([nH]c4ccccc34)[C@@H](c3cccc(O)c3)N2C(=O)N1c1ccc(Cl)cc1`: the IC50 was 40.5 µM in the test with MCF7; 34.8 µM in the test with A549; 17 µM in test [2]; 12.1 µM in the test with HeLa; 10.3 µM in [3].
In the case of `COc1cc([C@@H]2c3[nH]c4ccccc4c3C[C@H]3C(=O)N(c4ccc(Cl)cc4)C(=O)N23)ccc1O`, the IC50 was 42.2 µM in the test on MCF7; greater than 100 µM in the test with A549; greater than 100 µM in test [2]; 30.3 µM in the test on HeLa; 13.4 µM in test [3].
With `O=C1[C@@H]2Cc3c([nH]c4ccccc34)[C@@H](c3cccc(O)c3)N2C(=O)N1CCCl`, the IC50 in the test with MCF7 was 48.2 µM; with A549, 68 µM; in [2], 59.5 µM; in the test with HeLa it was 60.3 µM; in test [3] it was 49 µM.
The corresponding values for `COc1cc([C@@H]2c3[nH]c4ccccc4c3C[C@H]3C(=O)N(Cc4ccc(Br)cc4)C(=O)N23)ccc1O` are greater than 100 µM, 77.5 µM, greater than 100 µM, 82.9 µM and greater than 100 µM.
Take `COc1cc([C@@H]2c3[nH]c4ccccc4c3C[C@@H]3C(=O)N(CCCl)C(=O)N23)ccc1O`: the IC50 is greater than 100 µM in the test on MCF7; greater than 100 µM with A549; greater than 100 µM in test [2]; 33.1 µM with HeLa; 29.1 µM in test [3].
As to `COc1cc([C@@H]2c3[nH]c4ccccc4c3C[C@@H]3C(=O)N(c4ccc(Cl)cc4)C(=O)N23)ccc1O`, the half-inhibitory concentration (IC50) was 19.7 µM in the test with MCF7; greater than 100 µM in the test on A549; greater than 100 µM in test [2]; 30.6 µM with HeLa; 13.4 µM in test [3].
For the compound `COc1cc([C@@H]2c3[nH]c4ccccc4c3C[C@@H]3C(=O)N(Cc4ccc(Br)cc4)C(=O)N23)ccc1O`, the IC50 in the test on MCF7 is 19.9 µM; with A549, greater than 100 µM; in test [2], greater than 100 µM; with HeLa, 84.3 µM; in test [3], 12 µM.
In the case of `COc1cc([C@@H]2c3cc4c(cc3[C@@H](O[C@@H]3O[C@@H]5CO[C@@H](C)O[C@H]5[C@H](O)[C@H]3O)[C@H]3COC(=O)[C@H]23)OCO4)cc(OC)c1O` [ETOPOSIDE], in test [1], the “Ratio IC50” value is reported as 2. For the same compound, the IC50 with A549 was 50 µM; in [2], 8.9 µM; with HeLa, 4.71 µM; in test [3], 14.4 µM.
With `COc1cc([C@@H]2c3[nH]c4ccccc4c3C[C@H]3C(=O)N(CCCl)C(=O)N23)ccc1O`, the half-inhibitory concentration (IC50) in the test on MCF7 is 50.7 µM; with A549, greater than 100 µM; in test [2] it was greater than 100 µM; in the test with HeLa, 50 µM; in test [3] it was 35.5 µM.
In the case of `O=C1[C@@H]2Cc3c([nH]c4ccccc34)[C@@H](c3cccc(O)c3)N2C(=O)N1Cc1ccc(Br)cc1`, the IC50 in the test with MCF7 was 24.9 µM; in the test on A549, 34.8 µM; in test [2], 88.6 µM; in the test with HeLa, 24.3 µM; in test [3] it was 8.9 µM. The “Ratio IC50” value in [1] stood at 1.9.
